The subject of the assay is Influenza A/WSN/Virus. The format is cell-based.

For the substance “Ala Ser Gln Gly Thr Lys Arg Ser Tyr Glu Gln Met Glu Thr Asp Gly Glu Arg Gln (ASQGTKRSYEQMETDGERQ; listed as Homo sapiens) [NP-NLS oligopeptide, 19-amino acid NP-NLS oligopeptide corresponding to amino acids 2-20 of NP]”, the “inhibition of viral growth (hemagglutination titer)” value is “thousand-fold”.

These data come from patent US7632801B2, “Identification and use of antiviral compounds that inhibit interaction of host cell proteins and viral proteins required for viral replication” (Mount Sinai School of Medicine of New York University, priority 1995, dated 2009).
